Assay results from patent publication US20230365585A1, “BENZODIAZEPINE DERIVATIVES USEFUL IN TREATING A RESPIRATORY SYNCYTIAL VIRUS INFECTION” (priority 2020, published 2023).

Legend:
RSV A2 = test: RSV plaque reduction assay; format: cell-based, RSV (RSV A2 ECACC, 0709161v); details: Hep-G2 cells, RSV A2, 2 days, mean of at least two experiments
How it was run: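 Hep-G2 monolayers infected with 100 PFU/well RSV A2 premixed with eight compound dilutions, 2 h at 37° C, then overlaid with 0.8% CMC/2% FBS DMEM containing compound for 2 days. Plaques immunostained (HRP/TrueBlue) and counted; EC50 from % infection versus virus control, mean of at least two experiments.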

Cell cytotoxicity CC50 = format: cell-based; details: human; mean of at least two experiments
Text: (§1) Plates were scanned and analysed using the Immunospot S6 Macro analyser, which is equipped with BioSpot analysis software for counting immunostained plaques (virospots). Plaque counts were used to calculate % infection relative to the mean of the plaque count in the virus control wells for RSV. […] Plaque EC50 and cell toxicity CC50 values are a mean of at least two experiments and figures are rounded to whole units.

[1] = Liver microsomal stability (rat); format: in vitro ADME; details: 1 µM compound; for half-life at 1 µM: pooled liver microsomes, pH 7.4, 0.5 mg/mL protein, read-out: Liver Microsomal Stability t½
Description: (§2) Compounds were subjected to the following assays to investigate liver microsomal stability.
(§3) Pooled liver microsomes were purchased from a reputable commercial supplier and stored at -80° C. prior to use. Microsomes (final protein concentration 0.5 mg/mL), 0.1 M phosphate buffer pH 7.4 and test compound (final substrate concentration 1 µM; final DMSO concentration 0.25%) were pre-incubated at 37° C. prior to the addition of NADPH (final concentration 1 mM) to initiate the reaction. The final incubation volume was 50 µL. A control incubation was included for each compound tested where 0.1 M phosphate buffer pH 7.4 was added instead of NADPH (minus NADPH). Two control compounds were included with each species. All incubations were performed singularly for each test compound. Each compound was incubated for 0, 5, 15, 30 and 45 min. The control (minus NADPH) was incubated for 45 min only. The reactions were stopped by transferring incubate into acetonitrile at the appropriate time points, in a 1:3 ratio. The termination plates are centrifuged at 3,000 rpm for 20 min at 4° C. to precipitate the protein. Following protein precipitation, the sample supernatants were combined in cassettes of up to 4 compounds, internal standard added, and samples analysed by LC-MS/MS. From a plot of In peak area ratio (compound peak area/internal standard peak area) against time, the gradient of the line was determined. Subsequently, half-life (t½) and intrinsic clearance (CLint) were calculated.

[2] = Liver microsomal stability (dog); format: in vitro ADME; details: 1 µM compound; for half-life at 1 µM: pooled liver microsomes, pH 7.4, 0.5 mg/mL protein, read-out: Liver Microsomal Stability t½
Description: as §2, §3

[3] = Liver microsomal stability (human); format: in vitro ADME; details: 1 µM compound; for half-life at 1 µM: pooled liver microsomes, pH 7.4, 0.5 mg/mL protein, read-out: Liver Microsomal Stability t½
Description: as §2, §3

RSV = details: Antimicrobial Agents and Chemotherapy, September 2007, 3346-3353; cited from earlier work
Hep-G2 cells = test: Cell cytotoxicity CC50; format: cell-based; details: mean of at least two experiments
Text: as §1

[4] = In vivo pharmacokinetics in rats; parameters: species or system rats [Sprague Dawley (SD)]; details: male SD rats
Description: The pharmacokinetics of compounds were studied in vivo in rats at doses of 1 mg/kg (IV) and 10 mg/kg (PO).
Male rats [Sprague Dawley (SD)] surgically prepared with a jugular vein cannula were treated with experimental compounds via intravenous administration (IV; n=3; 1 mg/kg) or oral administration (PO; n=3; 10 mg/kg). Compounds were formulated as a solution in 40:60 dimethylacetamide:saline (IV administration) and a solution of 10% DMSO, 10% cremaphor in water (80%) (PO administration). […] Serial blood samples were collected via the cannula at 0.02, 0.08, 0.25, 0.5, 1, 2, 4, 6, 8 and 24 h post IV dosing of compound, and at 0.08, 0.25, 0.5, 1, 2, 4, 6, 8 and 24 h post oral dosing of compound, and plasma was prepared by centrifugation and stored immediately at -80° C. Samples were subsequently thawed, prepared for analysis by protein precipitation with acetonitrile, and analysed by tandem LCMS using electrospray ionisation using a matrix-matched calibration curve. PK parameters were calculated from the resulting data.

[5] = human respiratory syncytial virus, HepG2, 48 h

O=C(N[C@H]1N=C(c2ccccc2)c2cccc(F)c2NC1=O)c1c(-c2ccccc2F)nn2c1OCC(F)(F)CC2 [Example 28, 6,6-Difluoro-N-[(3S)-9-fluoro-2-oxo-5-phenyl-2,3-dihydro-1H-1,4-benzodiazepin-3-yl]-2-(2-fluorophenyl)-5H,6H,7H,8H-pyrazolo[3,2-b][1,3]oxazepine-3-carboxamide]
EC50 (RSV A2; [5]): 45 nM
CC50 (Cell cytotoxicity CC50): > 25000 nM
half-life at 1 µM [1]: 3.25 h
half-life at 1 µM [2]: 31 h
half-life at 1 µM [3]: 11.2 h

O=C(Nc1ccccc1F)N[C@H]1N=C(c2ccccc2)c2ccccc2NC1=O [RSV604]
anti-RSV activity (RSV): sub-micromolar

O=C(N[C@H]1N=C(c2ccccc2)c2cccc(F)c2NC1=O)c1c(-c2ccccc2F)nn2c1OCCCC2 [Example 2, N-[(3S)-9-Fluoro-2-oxo-5-phenyl-1,3-dihydro-1,4-benzodiazepin-3-yl]-2-(2-fluorophenyl)-5,6,7,8-tetrahydropyrazolo[5,1-b][1,3]oxazepine-3-carboxamide]
EC50 (RSV A2; [5]): 33 nM
CC50 (Cell cytotoxicity CC50): > 25000 nM
half-life at 1 µM [1]: 0.853 h
half-life at 1 µM [2]: 5.42 h
half-life at 1 µM [3]: 6.05 h

N-((S)-9-fluoro-2-oxo-5-phenyl-2,3-dihydro-1H-benzo[b]azepin-3-yl)-2-(2-fluorophenyl)-5,6,7,8-tetrahydro-5,8-methanopyrazolo[5,1-b][1,3]oxazepine-3-carboxamide [Example 19]
EC50 (RSV A2): 37 nM
CC50 (Hep-G2 cells): > 25000 nM
Liver Microsomal Stability t½ ([1]; rat liver microsomes, 0.5 mg/mL protein): 2.13 h
Liver Microsomal Stability t½ ([2]; dog liver microsomes, 0.5 mg/mL protein): 1.92 h
Liver Microsomal Stability t½ ([3]; human liver microsomes, 0.5 mg/mL protein): 1.23 h
C 8 h ([4]; 8 h, route not stated in the row): 110 ng/mL
IV t½ ([4]; IV 1 mg/kg): 2.30 h
PO AUClast ([4]; PO 10 mg/kg): 4487 ng·h/mL
PO t½ ([4]; PO 10 mg/kg): 2.9 h
F ([4]; PO 10 mg/kg vs IV 1 mg/kg): 39.3%
Cmax ([4]; route not stated in the row, study IV 1 mg/kg, PO 10 mg/kg): 949 ng/mL
Cl ([4]; study IV 1 mg/kg, PO 10 mg/kg): 16.1 mL/min/kg
Vd ([4]; study IV 1 mg/kg, PO 10 mg/kg): 2.8 L/kg
